{"source": "patent US8715621B2", "about": "“Radical polarizing agents for dynamic nuclear polarization” (Massachusetts Institute of Technology, priority 2012, dated 2014)", "key": {"[1]": {"experiment": "Solubility in water / aqueous media", "assay_type": "physicochemical"}, "[2]": {"experiment": "EPR spectrum: line width, aggregation, dimerization", "conditions": "solution, glass or solid"}, "Stability in air": {"experiment": "Stability in air", "assay_type": "physicochemical"}}}
{"substance": "1,3-bisdiphenylene-2-phenylallyl [BDPA]", "values": [{"measurement": "solubility in water / aqueous media", "setting": "[1]", "value": "lack of solubility in aqueous media"}, {"measurement": "aggregate formation or radical dimerization", "setting": "[2]", "value": "no dimerization in solid or in solution"}, {"measurement": "air stability", "setting": "Stability in air", "value": "air stable"}]}
